Among the test systems are BT-549; EKVX; COLO 205; SN12C; T47D; HCT-116; LOX IMVI; NCI-H23; UO-31; SR; OVCAR-3; Malme-3M; CAKI-1; SK-MEL-2; SNB-75; SK-OV-3; UACC-257; 786-0; OVCAR-4; ACHN.
Experiment in all cases: DTP human tumour cell line panel, 48 h

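Results reflect a 48-hour exposure of cells in 96-well plates to compound at five concentrations. GI50: concentration for 50% inhibition of growth.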 Active and inactive are the calls of the source. Cut-off read from the data, not from the text of the source: active = GI50 up to about 1.1 µM and inactive = higher.

Consider `O=C1C=CC(=O)c2c(O)c(N3CCN(c4ccccn4)CC3)cc(O)c21`, for which the GI50 in the test with BT-549 was 10.7 µM (inactive); in the test on EKVX, 23.9 µM (inactive); in the test with COLO 205 it was 5.35 µM (inactive); in the test with SN12C, 7.6 µM (inactive); in the test with T47D, 29.4 µM (inactive); with HCT-116, 2.85 µM (inactive). Besides, the GI50 in the test with LOX IMVI is 3.95 µM (inactive); in the test on NCI-H23, 3.4 µM (inactive); with UO-31, 8.28 µM (inactive); in the test with SR, 3.19 µM (inactive); in the test on OVCAR-3 it was 4.18 µM (inactive); in the test on Malme-3M, 0.553 µM (active). For the same compound, the GI50 with CAKI-1 is 8 µM (inactive); in the test on SK-MEL-2 it was 5.92 µM (inactive); in the test on SNB-75, 7.41 µM (inactive); with SK-OV-3, 28.1 µM (inactive); in the test with UACC-257 it was 4.07 µM (inactive); in the test with 786-0, 7.24 µM (inactive). Further, the GI50 is 11.6 µM (inactive) in the test on OVCAR-4 and 6.89 µM (inactive) in the test on ACHN.

Turning to `CCNCCCCNCCCCNCCCCNCCCCNCC`, the GI50 in the test on BT-549 was > 100 µM (inactive); in the test on EKVX it was 53.5 µM (inactive); with COLO 205, 43.8 µM (inactive); in the test with SN12C it was > 95.1 µM (inactive); in the test with T47D it was 6.17 µM (inactive); in the test on HCT-116, 11.4 µM (inactive). For the same compound, the GI50 in the test with LOX IMVI was 32 µM (inactive); in the test on NCI-H23, 9.08 µM (inactive); in the test with UO-31 it was 53.6 µM (inactive); with SR, 56.4 µM (inactive); with OVCAR-3, > 100 µM (inactive); in the test on Malme-3M, 6.49 µM (inactive). Further, the GI50 in the test with CAKI-1 was 10.4 µM (inactive); with SK-MEL-2, 48.1 µM (inactive); in the test on SNB-75, 16.7 µM (inactive); in the test with SK-OV-3 it was > 100 µM (inactive); in the test on UACC-257 it was 40.1 µM (inactive); with 786-0, 34.8 µM (inactive). The GI50 in the test on OVCAR-4 is > 22.2 µM (inactive); in the test with ACHN, > 89.9 µM (inactive).

As for `CC(C)=CCC[C@@H](C)C1=C(Nc2ccccc2)C(=O)C(C)=C(O)C1=O`, the GI50 is 3.67 µM (inactive) in the test on BT-549; 3.86 µM (inactive) with EKVX; 2.74 µM (inactive) with COLO 205; 4.19 µM (inactive) in the test on SN12C; 6.7 µM (inactive) with T47D; 1.53 µM (inactive) with HCT-116. Moreover, the GI50 is 3.92 µM (inactive) in the test on LOX IMVI; 2.82 µM (inactive) in the test on NCI-H23; 3.77 µM (inactive) in the test with UO-31; 0.631 µM (active) with SR; 2.21 µM (inactive) with OVCAR-3; 4.2 µM (inactive) in the test on Malme-3M. In addition, the GI50 is 2.82 µM (inactive) in the test on CAKI-1; 2.52 µM (inactive) in the test with SK-MEL-2; 3.11 µM (inactive) with SNB-75; 5.58 µM (inactive) in the test with SK-OV-3; 5.53 µM (inactive) in the test with UACC-257; 4.75 µM (inactive) in the test with 786-0. The values for the GI50 with OVCAR-4 and with ACHN were 6.62 µM (inactive) and 2.56 µM (inactive), respectively.

As for `Cc1cccc2c1C(=O)C(C1OC(=O)c3ccccc31)C2` (stereo not given), the GI50 with BT-549 was > 100 µM (inactive); in the test on EKVX it was > 100 µM (inactive); in the test with COLO 205, > 100 µM (inactive); with SN12C it was > 100 µM (inactive); in the test on T47D it was > 100 µM (inactive); in the test with HCT-116, 90.6 µM (inactive). In addition, the GI50 in the test with LOX IMVI, with NCI-H23, in the test on UO-31, in the test with SR, in the test with OVCAR-3 and in the test on Malme-3M was > 100 µM (inactive) throughout. Moreover, the GI50 in the test on CAKI-1, in the test with SK-MEL-2, in the test with SNB-75, in the test on SK-OV-3, in the test with UACC-257 and with 786-0 was > 100 µM (inactive) throughout. Besides, the GI50 with OVCAR-4 and in the test with ACHN was > 100 µM (inactive) throughout.

`CC(=O)OCC1OC(OC2CC3C(C)(C)C(=O)CC[C@]3(C)C3CC[C@]45C[C@]4(CCC5[C@@H](C)CC(O)C(O)C(C)(C)O)[C@]23C)C(O)C(O)C1O` (stereo not given in full): the GI50 is 12.9 µM (inactive) in the test with BT-549; 16.3 µM (inactive) in the test with EKVX; 5.85 µM (inactive) in the test on COLO 205; 13.4 µM (inactive) with SN12C; 5.68 µM (inactive) in the test on T47D; 7.1 µM (inactive) in the test with HCT-116. Besides, the GI50 in the test on LOX IMVI was 3.72 µM (inactive); in the test on NCI-H23, 17.5 µM (inactive); in the test on UO-31, 18.2 µM (inactive); in the test with SR, 4.35 µM (inactive); with OVCAR-3, 12.7 µM (inactive); with Malme-3M, 14.1 µM (inactive). Besides, the GI50 in the test with CAKI-1 was 17.1 µM (inactive); in the test with SK-MEL-2, 4.93 µM (inactive); with SNB-75, 5.35 µM (inactive); with SK-OV-3, 15.5 µM (inactive); in the test on UACC-257, 11.2 µM (inactive); in the test on 786-0, 13.6 µM (inactive). The GI50 in the test on OVCAR-4 is 12.7 µM (inactive); with ACHN, 16.4 µM (inactive).

As for `C=C(C)[C@@]12C[C@H](OC(=O)[C@H](O)[C@@H](NC(=O)c3ccccc3)c3ccccc3)C(C)=C1[C@@H](OC(C)=O)C(=O)[C@@]1(C)C([C@@H]2OC(=O)c2cc(F)cc(F)c2)C2(OC(C)=O)CO[C@@H]2C[C@@H]1O` (stereo not given in full), the GI50 in the test on BT-549 was 0.194 µM (active); with EKVX, 1.02 µM (active); in the test on COLO 205, 0.0789 µM (active); with SN12C it was 0.144 µM (active); in the test with T47D it was 0.117 µM (active); in the test with HCT-116, 0.0201 µM (active). Further, the GI50 in the test with LOX IMVI was 0.0791 µM (active); with NCI-H23 it was 0.152 µM (active); in the test on UO-31, 0.973 µM (active); in the test on SR, 0.169 µM (active); in the test on OVCAR-3, 0.122 µM (active); in the test on Malme-3M it was 0.461 µM (active). In addition, the GI50 was 0.525 µM (active) with CAKI-1; 0.144 µM (active) in the test on SK-MEL-2; 0.0966 µM (active) in the test with SNB-75; 0.417 µM (active) in the test with SK-OV-3; 0.0796 µM (active) in the test on UACC-257; 0.0853 µM (active) with 786-0. The GI50 is 2.38 µM (inactive) in the test on OVCAR-4 and 0.555 µM (active) with ACHN.

With `CN(C)c1ccccc1CN1CCCN(Cc2ccccc2N(C)C)C1c1ccncc1`, the GI50 was 16.9 µM (inactive) with BT-549; 13.7 µM (inactive) in the test on EKVX; 14.9 µM (inactive) with COLO 205; 20.4 µM (inactive) with SN12C; 17.7 µM (inactive) in the test with T47D; 11.2 µM (inactive) with HCT-116. Moreover, the GI50 was 13.6 µM (inactive) with LOX IMVI; 18.3 µM (inactive) with NCI-H23; 5.02 µM (inactive) in the test with UO-31; 4.91 µM (inactive) in the test with SR; 14.6 µM (inactive) in the test on OVCAR-3; 10.4 µM (inactive) in the test with Malme-3M. For the same compound, the GI50 in the test with CAKI-1 was 16.7 µM (inactive); in the test on SK-MEL-2, 17.8 µM (inactive); with SNB-75 it was 17.6 µM (inactive); in the test with SK-OV-3, 16.5 µM (inactive); with UACC-257, 2.42 µM (inactive); in the test on 786-0 it was 13.1 µM (inactive). Also, the GI50 with OVCAR-4 was 15 µM (inactive); with ACHN, 24.8 µM (inactive).

Values taken from ChEMBL document CHEMBL1201862, “PubChem BioAssay data set” (2004).
